The target in this test is T1, human GalNAc-T2 (Homo sapiens, UniProt Q10471).
T1 construct: gene GALNT2; full coding region, untagged (pH7WG2:GNT2), stably expressed in Nicotiana benthamiana; microsomal fraction; ~65 kDa
Nature of the test: GalNAc transfer to hCG-beta peptide; RP-HPLC, MALDI-TOF MS, radioactive assay. It is filed as biochemical. The following applies: donor with acceptor hCG-beta peptide 113-136 (500 ug in 100 ul); 10 mM MnCl2, 25 mM Tris HCl pH 7.4, 0.25% Triton X-100, 37 C; microsomes; control-plant microsomes as negative control; also 3H-labelle.

The results in this text go back to paper PMC2936419, “Engineering of N. benthamiana L. plants for production of N-acetylgalactosamine-glycosylated proteins - towards development of a plant-based platform for production of protein therapeutics with mucin type O-glycosylation” (BMC Biotechnology, 2010).

T1 sequence (Q10471 whole entry): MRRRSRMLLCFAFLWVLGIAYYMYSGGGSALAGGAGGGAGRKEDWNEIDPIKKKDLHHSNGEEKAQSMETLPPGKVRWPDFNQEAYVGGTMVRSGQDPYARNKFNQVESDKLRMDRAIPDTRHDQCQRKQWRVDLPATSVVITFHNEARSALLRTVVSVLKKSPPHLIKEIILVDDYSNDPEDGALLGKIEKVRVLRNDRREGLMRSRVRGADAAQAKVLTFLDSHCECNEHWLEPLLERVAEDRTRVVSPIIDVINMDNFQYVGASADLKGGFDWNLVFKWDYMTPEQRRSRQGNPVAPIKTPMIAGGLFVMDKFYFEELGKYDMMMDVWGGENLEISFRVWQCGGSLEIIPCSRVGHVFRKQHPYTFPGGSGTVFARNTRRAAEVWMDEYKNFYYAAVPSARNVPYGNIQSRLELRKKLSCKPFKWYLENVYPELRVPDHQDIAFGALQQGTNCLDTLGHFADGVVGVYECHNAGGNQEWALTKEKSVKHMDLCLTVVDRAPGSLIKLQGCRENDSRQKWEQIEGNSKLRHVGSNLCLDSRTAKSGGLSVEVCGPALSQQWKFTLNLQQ

As to `CC(=O)N[C@H]1[C@@H](OP(=O)(O)OP(=O)(O)OC[C@H]2O[C@@H](n3ccc(=O)[nH]c3=O)[C@H](O)[C@@H]2O)O[C@H](CO)[C@H](O)[C@@H]1O` [UDP-GalNAc], the “GalNAc transfer to hCG-beta peptide; RP-HPLC, MALDI-TOF MS, radioactive assay” value is reported as “plant microsomal fraction as an enzyme source, UDP-GalNAc as the donor”.
